Reference: the kinase profiling compilation of Christmann-Franck et al. (2016)

Key:
Experiment in all cases: radiometric filter-binding kinase assay
CSNK2A1 (human) = CSNK2A1 (human) (UniProt P68400)
DAPK1 (human) = DAPK1 (human) (UniProt P53355)
MAPK3 (human) = MAPK3 (human) (UniProt P27361)
IKBKB (human) = IKBKB (human) (UniProt O14920); conditions: compound 0.01 µM
ROCK2 (rat) = conditions: accession and sequence are those of the human protein
RPS6KA1 KD1 KD2 (human) = RPS6KA1 KD1 KD2 (human) (UniProt Q15418)
MAP2K6 (human) = MAP2K6 (human) (UniProt P52564)
MAPK14 (human) = MAPK14 (human) (UniProt Q16539)
Sequence of MAPK14 (human) (Q16539 whole entry, looked up): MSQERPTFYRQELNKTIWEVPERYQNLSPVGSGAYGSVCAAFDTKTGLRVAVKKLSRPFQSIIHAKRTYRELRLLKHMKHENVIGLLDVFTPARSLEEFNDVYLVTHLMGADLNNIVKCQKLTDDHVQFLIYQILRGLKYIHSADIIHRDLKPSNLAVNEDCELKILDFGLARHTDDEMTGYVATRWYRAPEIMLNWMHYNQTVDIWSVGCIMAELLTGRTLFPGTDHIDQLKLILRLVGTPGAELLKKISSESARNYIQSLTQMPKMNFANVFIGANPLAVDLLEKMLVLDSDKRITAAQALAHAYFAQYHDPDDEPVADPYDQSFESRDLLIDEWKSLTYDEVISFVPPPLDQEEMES

MAPK12 (human) = MAPK12 (human) (UniProt P53778)
Sequence of MAPK12 (human) (P53778 whole entry, looked up): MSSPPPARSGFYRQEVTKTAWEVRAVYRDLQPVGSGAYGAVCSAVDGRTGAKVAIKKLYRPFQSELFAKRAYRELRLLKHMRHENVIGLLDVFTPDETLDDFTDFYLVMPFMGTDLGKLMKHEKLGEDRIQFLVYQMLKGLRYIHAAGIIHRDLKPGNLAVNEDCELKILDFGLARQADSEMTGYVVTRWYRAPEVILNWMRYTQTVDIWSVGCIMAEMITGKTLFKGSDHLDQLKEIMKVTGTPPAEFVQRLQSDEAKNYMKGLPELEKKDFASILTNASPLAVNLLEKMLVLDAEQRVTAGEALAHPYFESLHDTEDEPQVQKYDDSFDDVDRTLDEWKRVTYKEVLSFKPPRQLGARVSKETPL

PIM2 (human) = PIM2 (human) (UniProt Q9P1W9)
DYRK3 (human) = DYRK3 (human) (UniProt O43781)
NTRK1 (human) = NTRK1 (human) (UniProt P04629)
CLK2 (human) = CLK2 (human) (UniProt P49760)
Sequence of CLK2 (human) (P49760 whole entry, looked up): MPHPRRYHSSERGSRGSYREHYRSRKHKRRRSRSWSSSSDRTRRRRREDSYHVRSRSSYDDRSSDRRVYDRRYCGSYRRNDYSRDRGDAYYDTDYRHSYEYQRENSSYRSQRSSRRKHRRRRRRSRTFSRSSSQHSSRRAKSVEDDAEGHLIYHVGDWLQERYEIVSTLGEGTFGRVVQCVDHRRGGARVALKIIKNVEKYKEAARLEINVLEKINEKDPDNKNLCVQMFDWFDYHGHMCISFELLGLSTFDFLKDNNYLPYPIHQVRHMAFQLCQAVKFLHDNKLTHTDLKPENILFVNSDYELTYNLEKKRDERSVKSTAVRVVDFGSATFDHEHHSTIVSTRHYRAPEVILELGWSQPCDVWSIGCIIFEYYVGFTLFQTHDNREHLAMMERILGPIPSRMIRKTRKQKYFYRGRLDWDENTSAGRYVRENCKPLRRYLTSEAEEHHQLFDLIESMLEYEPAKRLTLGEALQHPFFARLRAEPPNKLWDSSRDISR

[1] = tested on: AKT1 (human), P31749 [S473D]
IRAK4 (human) = IRAK4 (human) (UniProt Q9NWZ3)
IKBKE (human) = IKBKE (human) (UniProt Q14164)
Sequence of IKBKE (human) (Q14164 whole entry, looked up): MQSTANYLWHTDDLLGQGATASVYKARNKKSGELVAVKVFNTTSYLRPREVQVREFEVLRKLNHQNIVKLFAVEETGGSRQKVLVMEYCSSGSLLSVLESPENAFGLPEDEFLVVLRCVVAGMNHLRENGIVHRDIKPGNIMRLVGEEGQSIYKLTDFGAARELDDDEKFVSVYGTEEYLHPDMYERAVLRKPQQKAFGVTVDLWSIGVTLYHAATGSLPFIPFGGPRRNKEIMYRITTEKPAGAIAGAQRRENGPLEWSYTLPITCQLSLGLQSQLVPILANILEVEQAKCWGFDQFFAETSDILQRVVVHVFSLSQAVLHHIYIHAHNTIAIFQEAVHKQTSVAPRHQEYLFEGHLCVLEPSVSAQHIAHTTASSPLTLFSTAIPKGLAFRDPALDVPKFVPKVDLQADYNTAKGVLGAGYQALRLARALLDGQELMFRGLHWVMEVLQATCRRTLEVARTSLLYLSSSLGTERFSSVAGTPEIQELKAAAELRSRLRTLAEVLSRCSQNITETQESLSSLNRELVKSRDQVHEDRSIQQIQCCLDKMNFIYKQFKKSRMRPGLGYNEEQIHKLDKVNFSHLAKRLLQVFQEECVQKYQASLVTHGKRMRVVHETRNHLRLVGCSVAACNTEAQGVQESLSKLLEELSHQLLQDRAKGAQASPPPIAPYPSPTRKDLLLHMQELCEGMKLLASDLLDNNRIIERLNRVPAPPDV

MKNK2 (human) = MKNK2 (human) (UniProt Q9HBH9)
TBK1 (human) = TBK1 (human) (UniProt Q9UHD2)
MAPKAPK3 (human) = MAPKAPK3 (human) (UniProt Q16644)
Sequence of MAPKAPK3 (human) (Q16644 whole entry, looked up): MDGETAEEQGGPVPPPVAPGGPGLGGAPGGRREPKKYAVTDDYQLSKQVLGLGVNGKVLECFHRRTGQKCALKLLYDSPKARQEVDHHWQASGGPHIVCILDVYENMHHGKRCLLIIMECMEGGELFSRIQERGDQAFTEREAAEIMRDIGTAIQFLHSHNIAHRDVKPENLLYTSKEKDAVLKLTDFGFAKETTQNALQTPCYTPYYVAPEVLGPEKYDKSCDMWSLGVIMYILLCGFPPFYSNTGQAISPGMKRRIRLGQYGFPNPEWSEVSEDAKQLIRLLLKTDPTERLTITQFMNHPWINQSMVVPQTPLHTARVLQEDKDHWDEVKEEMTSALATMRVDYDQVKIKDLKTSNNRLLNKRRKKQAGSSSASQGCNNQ

PAK4 (human) = PAK4 (human) (UniProt O96013)
Sequence of PAK4 (human) (O96013 whole entry, looked up): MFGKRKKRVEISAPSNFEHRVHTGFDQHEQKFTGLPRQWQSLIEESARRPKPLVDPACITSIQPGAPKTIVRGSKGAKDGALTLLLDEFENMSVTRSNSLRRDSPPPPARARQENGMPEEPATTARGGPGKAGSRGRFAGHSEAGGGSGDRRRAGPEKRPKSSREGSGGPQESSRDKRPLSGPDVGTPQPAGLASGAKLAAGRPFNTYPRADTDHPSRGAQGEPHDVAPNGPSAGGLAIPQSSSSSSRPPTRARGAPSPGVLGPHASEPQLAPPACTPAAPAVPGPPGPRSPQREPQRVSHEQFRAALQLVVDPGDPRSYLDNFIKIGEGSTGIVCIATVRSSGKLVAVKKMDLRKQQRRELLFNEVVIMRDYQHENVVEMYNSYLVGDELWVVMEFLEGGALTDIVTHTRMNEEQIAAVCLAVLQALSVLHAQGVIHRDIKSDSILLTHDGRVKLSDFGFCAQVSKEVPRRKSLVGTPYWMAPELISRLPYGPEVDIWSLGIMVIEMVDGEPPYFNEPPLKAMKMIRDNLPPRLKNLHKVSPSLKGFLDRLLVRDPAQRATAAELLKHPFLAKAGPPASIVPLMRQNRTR

PLK1 (human) = PLK1 (human) (UniProt P53350)
MAP3K11 (human) = MAP3K11 (human) (UniProt Q16584)
STK3 (human) = STK3 (human) (UniProt Q13188)
[2] = tested on: SGK1 (human), O00141 [S422D]
MAPK11 (human) = MAPK11 (human) (UniProt Q15759)
MAPKAPK5 (human) = MAPKAPK5 (human) (UniProt Q8IW41)
Sequence of MAPKAPK5 (human) (Q8IW41 whole entry, looked up): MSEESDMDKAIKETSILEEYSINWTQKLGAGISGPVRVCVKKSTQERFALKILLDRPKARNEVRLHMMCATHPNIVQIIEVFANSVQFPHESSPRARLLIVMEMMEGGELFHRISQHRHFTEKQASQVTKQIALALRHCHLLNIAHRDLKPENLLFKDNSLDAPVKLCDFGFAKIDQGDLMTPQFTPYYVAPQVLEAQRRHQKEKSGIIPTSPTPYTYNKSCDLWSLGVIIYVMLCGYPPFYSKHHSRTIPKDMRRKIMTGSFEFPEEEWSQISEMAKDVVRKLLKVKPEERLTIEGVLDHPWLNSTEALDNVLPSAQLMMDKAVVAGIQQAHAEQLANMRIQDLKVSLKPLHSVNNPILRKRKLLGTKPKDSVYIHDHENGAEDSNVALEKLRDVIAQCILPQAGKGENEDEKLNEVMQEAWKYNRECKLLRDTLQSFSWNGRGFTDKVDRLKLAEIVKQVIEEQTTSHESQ

BRSK2 (human) = BRSK2 (human) (UniProt Q8IWQ3)
MAPK8 (human) = MAPK8 (human) (UniProt P45983)
EPHB3 (human) = EPHB3 (human) (UniProt P54753)
Sequence of EPHB3 (human) (P54753 whole entry, looked up): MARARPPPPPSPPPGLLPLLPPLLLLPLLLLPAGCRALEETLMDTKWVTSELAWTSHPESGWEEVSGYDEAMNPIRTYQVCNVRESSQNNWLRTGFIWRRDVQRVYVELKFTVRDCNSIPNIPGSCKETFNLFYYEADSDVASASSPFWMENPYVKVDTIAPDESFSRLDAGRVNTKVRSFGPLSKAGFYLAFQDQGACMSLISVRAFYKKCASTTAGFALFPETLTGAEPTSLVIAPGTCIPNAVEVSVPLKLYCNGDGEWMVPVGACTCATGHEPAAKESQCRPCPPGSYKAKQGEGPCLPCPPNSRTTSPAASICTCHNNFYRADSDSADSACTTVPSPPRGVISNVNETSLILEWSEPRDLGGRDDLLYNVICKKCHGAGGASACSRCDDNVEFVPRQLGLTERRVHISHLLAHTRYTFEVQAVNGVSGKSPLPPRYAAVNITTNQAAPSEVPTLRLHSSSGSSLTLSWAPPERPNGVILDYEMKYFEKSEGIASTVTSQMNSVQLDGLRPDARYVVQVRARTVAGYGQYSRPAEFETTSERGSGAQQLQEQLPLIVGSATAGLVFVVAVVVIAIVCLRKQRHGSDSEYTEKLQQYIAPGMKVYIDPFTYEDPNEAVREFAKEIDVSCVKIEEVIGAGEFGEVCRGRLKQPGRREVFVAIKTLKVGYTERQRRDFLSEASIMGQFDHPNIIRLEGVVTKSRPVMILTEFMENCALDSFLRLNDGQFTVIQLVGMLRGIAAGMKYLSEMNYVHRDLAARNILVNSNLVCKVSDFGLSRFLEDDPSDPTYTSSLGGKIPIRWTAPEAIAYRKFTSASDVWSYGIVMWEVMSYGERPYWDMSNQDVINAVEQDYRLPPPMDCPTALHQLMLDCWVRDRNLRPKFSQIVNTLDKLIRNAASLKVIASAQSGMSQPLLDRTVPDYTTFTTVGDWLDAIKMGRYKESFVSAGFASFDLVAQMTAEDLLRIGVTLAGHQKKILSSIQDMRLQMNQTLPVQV

[3] = tested on: RPS6KB1 (human), P23443 [T412E]
Sequence of RPS6KB1 (human), P23443 [T412E] (P23443 whole entry T412E, looked up): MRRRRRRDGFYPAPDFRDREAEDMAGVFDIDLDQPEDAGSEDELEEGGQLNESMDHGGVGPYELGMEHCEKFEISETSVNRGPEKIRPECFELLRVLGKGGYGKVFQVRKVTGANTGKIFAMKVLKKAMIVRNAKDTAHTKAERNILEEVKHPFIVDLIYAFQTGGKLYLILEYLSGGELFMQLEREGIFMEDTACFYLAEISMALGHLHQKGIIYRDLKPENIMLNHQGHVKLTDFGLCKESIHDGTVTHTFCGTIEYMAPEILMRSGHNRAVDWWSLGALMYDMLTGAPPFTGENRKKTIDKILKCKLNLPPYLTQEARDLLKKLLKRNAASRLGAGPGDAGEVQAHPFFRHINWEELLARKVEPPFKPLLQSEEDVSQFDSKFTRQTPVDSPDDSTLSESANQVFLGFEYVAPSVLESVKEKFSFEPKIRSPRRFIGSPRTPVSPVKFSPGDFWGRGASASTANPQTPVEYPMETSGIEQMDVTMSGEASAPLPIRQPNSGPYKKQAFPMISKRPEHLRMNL

PIM3 (human) = PIM3 (human) (UniProt Q86V86)
RPS6KA3 KD1 KD2 (human) = RPS6KA3 KD1 KD2 (human) (UniProt P51812)
PIM1 (human) = PIM1 (human) (UniProt P11309)
DYRK1A (human) = DYRK1A (human) (UniProt Q13627)
MAP3K7 TAB1 (human) = MAP3K7 TAB1 (human) (UniProt Q15750+O43318)

SMILES: O=C(Nc1nc2cc(C(F)(F)F)cc(NC3CC3)n2n1)c1cccnc1
- residual activity (CSNK2A1 (human); compound 0.01 µM): 99%
- residual activity (CSNK2A1 (human); compound 0.1 µM): 127%
- residual activity (CSNK2A1 (human); compound 1.0 µM): 102%
- residual activity (DAPK1 (human); compound 0.01 µM): 112%
- residual activity (DAPK1 (human); compound 0.1 µM): 95%
- residual activity (DAPK1 (human); compound 1.0 µM): 95%
- residual activity (MAPK3 (human); compound 0.01 µM): 120%
- residual activity (MAPK3 (human); compound 0.1 µM): 127%
- residual activity (MAPK3 (human); compound 1.0 µM): 116%
- residual activity (IKBKB (human)): 79%
- residual activity (ROCK2 (rat); compound 0.01 µM): 105%
- residual activity (ROCK2 (rat); compound 0.1 µM): 106%
- residual activity (ROCK2 (rat); compound 1.0 µM): 97%
- residual activity (RPS6KA1 KD1 KD2 (human); compound 0.01 µM): 99%
- residual activity (RPS6KA1 KD1 KD2 (human); compound 0.1 µM): 102%
- residual activity (RPS6KA1 KD1 KD2 (human); compound 1.0 µM): 65%
- residual activity (MAP2K6 (human); compound 0.01 µM): 100%
- residual activity (MAP2K6 (human); compound 0.1 µM): 110%
- residual activity (MAP2K6 (human); compound 1.0 µM): 85%
- residual activity (MAPK14 (human); compound 0.01 µM): 109%
- residual activity (MAPK14 (human); compound 0.1 µM): 121%
- residual activity (MAPK14 (human); compound 1.0 µM): 114%
- residual activity (MAPK12 (human); compound 0.01 µM): 71%
- residual activity (MAPK12 (human); compound 0.1 µM): 102%
- residual activity (MAPK12 (human); compound 1.0 µM): 80%
- residual activity (PIM2 (human); compound 0.01 µM): 106%
- residual activity (PIM2 (human); compound 0.1 µM): 109%
- residual activity (PIM2 (human); compound 1.0 µM): 108%
- residual activity (DYRK3 (human); compound 0.01 µM): 92%
- residual activity (DYRK3 (human); compound 0.1 µM): 119%
- residual activity (DYRK3 (human); compound 1.0 µM): 91%
- residual activity (NTRK1 (human); compound 0.01 µM): 80%
- residual activity (NTRK1 (human); compound 0.1 µM): 83%
- residual activity (NTRK1 (human); compound 1.0 µM): 81%
- residual activity (CLK2 (human); compound 0.01 µM): 101%
- residual activity (CLK2 (human); compound 0.1 µM): 82%
- residual activity (CLK2 (human); compound 1.0 µM): 40%
- residual activity ([1]; compound 0.01 µM): 97%
- residual activity ([1]; compound 0.1 µM): 95%
- residual activity ([1]; compound 1.0 µM): 104%
- residual activity (IRAK4 (human); compound 0.01 µM): 90%
- residual activity (IRAK4 (human); compound 0.1 µM): 90%
- residual activity (IRAK4 (human); compound 1.0 µM): 83%
- residual activity (IKBKE (human); compound 0.01 µM): 114%
- residual activity (IKBKE (human); compound 0.1 µM): 106%
- residual activity (IKBKE (human); compound 1.0 µM): 96%
- residual activity (MKNK2 (human); compound 0.01 µM): 95%
- residual activity (MKNK2 (human); compound 1.0 µM): 91%
- residual activity (TBK1 (human); compound 0.01 µM): 99%
- residual activity (TBK1 (human); compound 0.1 µM): 101%
- residual activity (TBK1 (human); compound 1.0 µM): 102%
- residual activity (MAPKAPK3 (human); compound 0.01 µM): 97%
- residual activity (MAPKAPK3 (human); compound 0.1 µM): 114%
- residual activity (MAPKAPK3 (human); compound 1.0 µM): 97%
- residual activity (PAK4 (human); compound 0.01 µM): 111%
- residual activity (PAK4 (human); compound 0.1 µM): 98%
- residual activity (PAK4 (human); compound 1.0 µM): 102%
- residual activity (PLK1 (human); compound 0.01 µM): 104%
- residual activity (PLK1 (human); compound 0.1 µM): 128%
- residual activity (PLK1 (human); compound 1.0 µM): 103%
- residual activity (MAP3K11 (human); compound 0.01 µM): 88%
- residual activity (MAP3K11 (human); compound 0.1 µM): 104%
- residual activity (MAP3K11 (human); compound 1.0 µM): 87%
- residual activity (STK3 (human); compound 0.01 µM): 99%
- residual activity (STK3 (human); compound 0.1 µM): 116%
- residual activity (STK3 (human); compound 1.0 µM): 93%
- residual activity ([2]; compound 0.01 µM): 103%
- residual activity ([2]; compound 1.0 µM): 100%
- residual activity (MAPK11 (human); compound 0.01 µM): 106%
- residual activity (MAPK11 (human); compound 0.1 µM): 121%
- residual activity (MAPK11 (human); compound 1.0 µM): 107%
- residual activity (MAPKAPK5 (human); compound 0.01 µM): 97%
- residual activity (MAPKAPK5 (human); compound 0.1 µM): 112%
- residual activity (MAPKAPK5 (human); compound 1.0 µM): 98%
- residual activity (BRSK2 (human); compound 0.01 µM): 116%
- residual activity (BRSK2 (human); compound 0.1 µM): 116%
- residual activity (BRSK2 (human); compound 1.0 µM): 109%
- residual activity (MAPK8 (human); compound 0.01 µM): 87%
- residual activity (MAPK8 (human); compound 0.1 µM): 93%
- residual activity (MAPK8 (human); compound 1.0 µM): 91%
- residual activity (EPHB3 (human); compound 0.01 µM): 99%
- residual activity (EPHB3 (human); compound 0.1 µM): 95%
- residual activity (EPHB3 (human); compound 1.0 µM): 99%
- residual activity ([3]; compound 0.01 µM): 125%
- residual activity ([3]; compound 0.1 µM): 104%
- residual activity ([3]; compound 1.0 µM): 103%
- residual activity (PIM3 (human); compound 0.01 µM): 104%
- residual activity (PIM3 (human); compound 0.1 µM): 101%
- residual activity (PIM3 (human); compound 1.0 µM): 95%
- residual activity (RPS6KA3 KD1 KD2 (human); compound 0.01 µM): 112%
- residual activity (RPS6KA3 KD1 KD2 (human); compound 0.1 µM): 106%
- residual activity (RPS6KA3 KD1 KD2 (human); compound 1.0 µM): 89%
- residual activity (PIM1 (human); compound 0.01 µM): 104%
- residual activity (PIM1 (human); compound 0.1 µM): 96%
- residual activity (PIM1 (human); compound 1.0 µM): 98%
- residual activity (DYRK1A (human); compound 0.01 µM): 94%
- residual activity (DYRK1A (human); compound 0.1 µM): 92%
- residual activity (DYRK1A (human); compound 1.0 µM): 81%
- residual activity (MAP3K7 TAB1 (human); compound 0.01 µM): 92%
- residual activity (MAP3K7 TAB1 (human); compound 1.0 µM): 84%
